Consider 91 molecules from a melting point compilation (Tetko et al.; mined from patent text by program, amines drawn as free bases though some values may be those of a salt).

SMILES strings stand for the structures.

For the molecule `CCC(CC)NCc1cnc2c(C)c(NC(=O)c3ccc(OC[C@@H]4CCCO4)cc3)ccc2c1`, the melting point (usually the temperature, or range, at which the solid turns liquid) was in the range of 113 to 115 °C.

Consider `COC1=NS(=O)N=C1NCCCCc1ncc(Br)cc1N` (stereo unspecified), for which the melting point fell in the range of 118 to 120 °C.

`C=CCSc1nnc(C(C)(C)C)[nH]1` registered a melting point of 127 to 130 °C.

In the case of `CCC(=O)c1cc(C(=O)O)c(=O)[nH]c1CC`, the melting point lay in the range of 180 to 182 °C.

On to `CC(=O)Nc1c(CC(=O)O)c2ccccc2n1C`, for which the melting point lay in the range of 200 to 206 °C.

Molecule `CC(C)(C)OCCCC1(O)c2ccccc2COc2ccccc21` (stereo unspecified) displayed a melting point of 113 to 115 °C.

As to `CCCCCCCCCCCC(=O)Oc1ccc2nc(S(N)(=O)=O)sc2c1`, the melting point lay within 112 to 114 °C.

`Fc1ccc(Nc2ncnc3cnc(N4CCC(N5CCOCC5)CC4)nc23)cc1Cl`: the melting point was 222 to 224 °C.

The molecule `Oc1ccc2c(C3CCCCC3)nsc2c1` returned a melting point of 190 °C.

Take `COc1ccc2c(c1)N=C(NCc1cccnc1)c1ccccc1N2`: the melting point lay in the range of 160 to 161 °C.

`[N-]=[N+]=C(C(=O)CCc1ccc(S(=O)(=O)Cl)cc1)C(=O)CCc1ccc(S(=O)(=O)Cl)cc1` had a melting point of 121 to 122 °C.

Take `CC=CCSc1cc(C(=O)O)cc(S(N)(=O)=O)c1-c1ccccc1`: the melting point lay in the range of 89 to 91 °C.

On to `O=C(COc1cccc2ccccc12)c1cc(O)c(O)c([N+](=O)[O-])c1`, for which the melting point was in the range of 198 to 199 °C.

Molecule `CN1CCN(c2ccc([N+](=O)[O-])cc2F)CC1` came in with a melting point of 68 to 70 °C.

In turn, `Cc1cccc(NC(=O)NCCC(=O)N(c2ccccc2)c2ccccc2)c1` gave a melting point of 179 °C.

Molecule `Cn1ncc2c1CCCc1c-2cnn1C` had a melting point of 191 to 195 °C.

For the molecule `CCn1ncc2c3noc(-c4cccc(C)c4)c3cnc21`, the melting point is 178 to 179 °C.

`Cc1ccc(-c2[nH]c(-c3c(Cl)cccc3Cl)nc2-c2ccncc2)cc1` registered a melting point of 295 to 296 °C.

In the case of `COc1ccc(C(=O)n2cccc2Br)c(OC)c1`, the melting point fell in the range of 81 to 82 °C.

`Cc1nn(-c2ccc(C#N)c(Cl)c2)c(C)c1Cc1ccc(C(=O)N2CCC(O)CC2)cc1` had a melting point of 153 to 154 °C.

Consider `COCc1ccn2nc(SCc3ccccc3)nc2n1`, for which the melting point is 92 °C.

For `O=C1c2ccncc2C(=O)c2c(F)ccc(F)c21`, the melting point lay within 197 to 199 °C.

`N#Cc1c(N)nn(-c2c(Cl)cc(C(F)(F)F)cc2Cl)c1N` had a melting point of 208 to 210 °C.

`O=C(Nc1cccc(F)c1)c1ccc(CN2C(=O)C3(COc4cc5c(cc43)CCO5)c3ccccc32)cc1` (stereo unspecified) showed a melting point of over 250 °C.

`CN1CCC2(CCc3cc4ccccc4n3C2)C1` (stereo unspecified): the melting point was 55 to 58 °C.

`O=C(O)C1CCCC2c3ccccc3CC12` (stereo unspecified) gave a melting point of 138 to 139 °C.

Turning to `Cn1cnc(-c2ccccc2)c1-c1nn(-c2cccc(C(F)(F)F)c2)ccc1=O`, the melting point was 214 to 216 °C.

Take `CC(C)(C)OC(=O)NCCCCC(=O)Nc1cc(C(=O)O)ccc1Cl`: the melting point was determined as 203 °C.

Turning to `CCCCCCNP(N)(N)=S`, the melting point lay in the range of 65 to 70 °C.

As for `CC(=O)N(C)Nc1nnc(-c2ccccc2C)s1`, the melting point was in the range of 106 to 108 °C.

With `CC(C)(C)OC(=O)Nc1cccc(-c2noc(CCC(=O)O)n2)c1`, the melting point lay in the range of 143 to 144 °C.

In the case of `COc1cc2c(cc1Br)-c1cc3c(n1CC2)C(=O)N(C(C)(C)C)CCCC3`, the melting point was 127 to 129 °C.

In turn, `CCS(=O)(=O)N1CCN(C(=O)OC2CCC3(CO3)C(C3(C)OC3CC=C(C)C)C2OC)CC1` (stereo unspecified) returned a melting point of 91 to 92 °C.

Consider `NC(=O)N(O)CCNC(=O)c1ccc(Cl)cc1`, for which the melting point fell in the range of 172 to 173 °C.

As for `CCCCc1cn(CC2OC(n3cnc4c(NCc5ccc(OC)cc5)ncnc43)C(O)C2O)nn1` (stereo unspecified), the melting point was determined as 105 °C.

`CC#CN(NC(=O)c1ccc(Cl)c(S(N)(=O)=O)c1)c1ccccc1`: the melting point fell in the range of 168 to 170 °C.

Turning to `CC[C@H](C)[C@@H]1NC(=S)c2ccccc2/C1=C/C(=O)OC`, the melting point lay in the range of 193 to 196 °C.

Consider `COC(=O)c1ccc(CC(C)NCC(O)c2ccc(O)c(O)c2)cc1` (stereo unspecified), for which the melting point was determined as 169 °C.

Molecule `CN(Cc1ccc(NC(=O)C2=Cc3cc(Br)ccc3N(C3CC3)CC2)cc1)C1CCOCC1` gave a melting point of 133 to 136 °C.

Molecule `COC(=O)C=Cc1cn(C)nc1[N+](=O)[O-]` showed a melting point of 110 to 112 °C.

In turn, `COc1ccc(C2(C#Cc3cccc(C#N)c3)CCC(=O)CC2)cc1OC1CCCC1` showed a melting point of 124 to 126 °C.

For `OCc1cn(-c2ccc(Cl)c(Cl)c2)cn1`, the melting point is 146 to 147 °C.

`CCOC(=O)c1c(O)c2ccc(C)nc2n(CC)c1=O` returned a melting point of 138 to 140 °C.

`CCCn1cc2c(C3C(=O)Nc4ccc(Br)cc43)nc(NCc3cccnc3)nc2n1` (stereo unspecified) returned a melting point of 277 to 281 °C.

In turn, `NC(=O)c1ccc(I)c([N+](=O)[O-])c1` had a melting point of 152 to 155 °C.

Take `CSc1ccc2c(c1)C(O)(C1CCN(C)CC1)c1ccc(F)cc1S2` (stereo unspecified): the melting point is 180 to 189 °C.

Molecule `O=C(CN1CCN(c2ccc([N+](=O)[O-])cc2)CC1)Nc1ccc(Nc2ccccc2)cc1` gave a melting point of 212 to 213 °C.

`O=C(Nc1cc(-c2ccnc3c(C(=O)c4cccs4)cnn23)ccc1Cl)c1ccccc1` registered a melting point of 217 to 218 °C.

The molecule `CNC(=O)c1ccc(-c2ccc(NC(=O)NCc3cccnc3)cc2)nc1Nc1ccccc1` showed a melting point of 234 to 236 °C.

Take `O=C1NCCc2ccc(OCCCCN3CCCN(c4cccc(Cl)c4Cl)CC3)cc21`: the melting point is 86 to 88 °C.

The molecule `CCCCc1nc(C(F)(F)F)c(CO)n1Cc1ccc(-c2ccccc2C#N)cc1` had a melting point of 136 to 138 °C.

With `CC(=O)NCC1CN(c2ccc3c(c2)CC(CO)N3C=O)C(=O)O1` (stereo unspecified), the melting point lay within 132 to 136 °C.

`Cc1noc(NS(=O)(=O)c2ccccc2-c2ccc(-c3ncco3)cc2Cc2ncco2)c1C` gave a melting point of 88 to 95 °C.

`c1ccc2c(c1)CCCC2c1c[nH]cn1` (stereo unspecified) had a melting point of 105 to 110 °C.

`COc1ccc(N2CCN(c3ccc(N)cc3)CC2)cc1` came in with a melting point of 192 °C.

`CCOC(=O)C1(c2ccccc2)CCN(CC(=O)O)CC1`: the melting point fell in the range of 148 to 150 °C.

On to `Cc1c(C(=O)Nc2ccc(N3CCN(CCO)CC3)c(C#N)c2)cnn1C`, for which the melting point lay within 228 to 230 °C.

Consider `CCN1CCCC1CNC(=O)c1nc(Cl)c(N)nc1OC` (stereo unspecified), for which the melting point came to 155 °C.

Regarding `NC(=O)N1CC(c2ccccc2)c2ccccc21` (stereo unspecified), the melting point fell in the range of 144 to 145 °C.

On to `O=C1c2ccccc2C(=O)N1[C@@H]1C=CCC[C@@H]1O` (racemic), for which the melting point lay within 112 to 114 °C.

As to `COC(=O)C(O)c1ccc2c(c1)OCO2` (stereo unspecified), the melting point lay in the range of 93 to 95 °C.

For `CCOC(=O)c1nn(C(=O)Nc2ccccc2)c(C)c1C`, the melting point fell in the range of 139 to 140 °C.

With `CC(=O)NC(=Cc1ccccc1)C1=NC(=Cc2ccc(F)cc2)C(=O)O1`, the melting point was determined as 172 °C.

With `COc1ccc2nc(C(=O)NCc3ccc(C(=O)O)cc3)[nH]c(=O)c2c1`, the melting point is 287 to 288 °C.

`Cc1ccc2cc(-c3ccccc3)ccc2n1` yielded a melting point of 95 °C.

Consider `Nc1ccccc1-c1ncn[nH]1`, for which the melting point fell in the range of 145 to 148 °C.

`COc1ccc(N2CCN(c3ccc(NC(=O)NN)nc3)CC2)cc1` displayed a melting point of 260 to 263 °C.

In turn, `O=[N+]([O-])c1cc(OCc2ccccc2)ccc1CCCl` gave a melting point of 38 to 40 °C.

`Fc1ccccc1C1=NCc2c(N3CCCC3)ncn2-c2ccc(Cl)cc21` came in with a melting point of 114 to 118 °C.

For the molecule `O=C(O)C1Sc2ccccc2-c2ccccc21` (stereo unspecified), the melting point fell in the range of 156 to 159 °C.

On to `O=C(O)COc1c(I)cc(C(=O)c2c(Cc3ccccc3)oc3ccccc23)cc1I`, for which the melting point was in the range of 144 to 146 °C.

For `O=c1c(Cc2ccccc2)cn2c3ccc(Cl)cc3c3cc(Cl)cc1c32`, the melting point was 206 to 209 °C.

`Cc1cc2c(S(C)(=O)=O)nc(OCC(F)(F)F)nc2s1` had a melting point of 138 to 140 °C.

In turn, `C=CCNc1cc(Oc2ccccc2)ccc1[N+](=O)[O-]` yielded a melting point of 67 to 68 °C.

Molecule `CC(C)(C)c1cc2c(c(C(C)(C)C)c1O)CC1(CCCCC1)S2` showed a melting point of 128 °C.

With `COc1cc([N+](=O)[O-])c(NC(C)=O)cc1OC(F)F`, the melting point was in the range of 116 to 117 °C.

Molecule `Cc1ccc2c3c(c(=O)oc2c1)CNCC3` registered a melting point of 128 to 130 °C.

In the case of `CNC1(c2ccccc2Cl)C(=O)N(S(=O)(=O)c2ccc(NC(=O)c3cccnc3)cc2)c2ccc(Cl)cc21` (stereo unspecified), the melting point was found to be 228 °C.

Regarding `Clc1ccc(C(c2ccccc2)c2c(Cl)ncnc2Cl)c(Cl)c1` (stereo unspecified), the melting point lay within 138 to 139 °C.

`Cc1ccc(NC(=O)N2CCc3cc(S(=O)(=O)N4CC(c5ccccc5)NC4=O)ccc32)cc1` (stereo unspecified) gave a melting point of 223 to 224 °C.

Consider `CC(=O)Nc1cc(Oc2ccc3c(C(=O)Nc4ccc(CN5CCN(C(C)C)CC5)c(C(F)(F)F)c4)cccc3c2)ncn1`, for which the melting point fell in the range of 210 to 213 °C.

With `COC(=O)C(C(=O)OC)=C1SC=CS1`, the melting point is 125 to 129 °C.

For the molecule `CC1CC(C)CN(C(=O)C2Cc3ccccc3N2C(=O)OC(C)(C)C)C1` (stereo unspecified), the melting point lay within 148 to 149 °C.

`CC1(C)c2ccccc2N2Cc3cc(N=Nc4ccc([N+](=O)[O-])cc4)ccc3OC21C` (stereo unspecified) had a melting point of 156 °C.

For the molecule `CCC(Nc1ncnc2c1ncn2C1OC(CO)C(O)C1O)c1ccccc1` (stereo unspecified), the melting point fell in the range of 73 to 84 °C.

Molecule `O=C(c1ccccc1)c1ccc(-c2cnn3c(O)ncnc23)cc1` came in with a melting point of over 300 °C.

On to `O=C1O[C@H](CO)CN1c1ccc(C2CCCCC2)cc1`, for which the melting point is 166 to 168 °C.

Molecule `O=CC1=C(Cl)C(=CO)CCC1` returned a melting point of 127 °C.

As to `COc1nc(NC(=O)Nc2ccccc2OC)nc(N(CCC(=O)O)Cc2cccc(C)c2)n1`, the melting point was in the range of 160 to 162 °C.

`CC(C)c1nnn(-c2c(Cl)cccc2Cl)c1CO`: the melting point lay in the range of 154 to 155 °C.

The molecule `O=C/C=C/c1ccc(C(F)(F)F)cc1` showed a melting point of 60 to 61 °C.
